Measurements reported in the NIST ThermoML archive (doi:10.1021/je100089s).

Experiment: xn = mol fraction of the nth substance listed
Conditions: Liquid, Vibrating tube method

OCCO [1,2-ethanediol] + C[S+](C)[O-]
mass density [kg/m3]
Conditions	101 kPa	10000 kPa	25000 kPa	50000 kPa	75000 kPa	100000 kPa
278.15 K, x2 = 0	1123.77	1127.65	1133.2	1141.71	1149.55	1157.24
278.15 K, x2 = 0.00452	1123.78	–	–	–	–	–
278.15 K, x2 = 0.00721	1123.81	–	–	–	–	–
278.15 K, x2 = 0.0181	–	1127.79	1133.35	1141.89	1149.87	1157.59
278.15 K, x2 = 0.01811	1123.89	–	–	–	–	–
278.15 K, x2 = 0.03033	1123.98	–	–	–	–	–
278.15 K, x2 = 0.04027	1124.05	–	–	–	–	–
278.15 K, x2 = 0.0403	–	1127.98	1133.57	1142.21	1150.25	1158.01
278.15 K, x2 = 0.07007	1124.18	–	–	–	–	–
278.15 K, x2 = 0.0701	–	1128.13	1133.74	1142.44	1150.68	1158.48
278.15 K, x2 = 0.1097	1124.31	1128.3	1133.94	1142.73	1151.17	1159.03
278.15 K, x2 = 0.1408	1124.41	1128.43	1134.12	1142.98	1151.53	1159.45
278.15 K, x2 = 0.1934	1124.41	1128.44	1134.19	1143.24	1151.93	1159.97
278.15 K, x2 = 0.234	1124.34	1128.39	1134.22	1143.4	1152.14	1160.33
278.15 K, x2 = 0.3244	1124.05	1128.13	1134.17	1143.66	1152.48	1160.9
278.15 K, x2 = 0.3764	1123.76	1127.85	1134.01	1143.73	1152.55	1161.23
278.15 K, x2 = 0.4429	1123.28	1127.37	1133.7	1143.69	1152.53	1161.47
278.15 K, x2 = 0.4892	1122.88	1126.97	1133.44	1143.64	1152.45	1161.74
278.15 K, x2 = 0.5654	1122.14	1126.24	1132.95	1143.45	1152.24	1162
278.15 K, x2 = 0.6298	1121.26	–	–	–	–	–
278.15 K, x2 = 0.6946	1120.52	–	–	–	–	–
288.15 K, x2 = 0	–	1120.87	1126.51	–	–	–
288.15 K, x2 = 0.0181	–	1120.9	1126.66	–	–	–
288.15 K, x2 = 0.0403	–	1121	1126.79	–	–	–
288.15 K, x2 = 0.0701	–	1121.06	1126.89	–	–	–
288.15 K, x2 = 0.1097	–	1121.09	1126.97	–	–	–
288.15 K, x2 = 0.1408	–	1121.09	1127.02	–	–	–
288.15 K, x2 = 0.1934	–	1121	1127.02	–	–	–
288.15 K, x2 = 0.234	–	1120.87	–	–	–	–
288.15 K, x2 = 0.3244	1115.95	1120.42	–	–	–	–
288.15 K, x2 = 0.3764	1115.49	1119.99	–	–	–	–
288.15 K, x2 = 0.4429	1114.8	1119.41	–	–	–	–
288.15 K, x2 = 0.4892	1114.25	1118.92	–	–	–	–
288.15 K, x2 = 0.5654	1113.29	1118.05	–	–	–	–
288.15 K, x2 = 0.6298	1112.27	–	–	–	–	–
288.15 K, x2 = 0.6946	1111.32	1116.19	–	–	–	–
288.15 K, x2 = 0.8142	1109.13	–	–	–	–	–
